Laboratory results: US5789419A, “4-quinolinone derivative or salt thereof” (SS Pharmaceutical Co., Ltd., priority 1994, dated 1998)

Tested on: endothelium-ablated specimen of rat thoracic aorta
Experiment: Effect of inhibiting contraction caused by 30 mM K on endothelium-ablated specimen of rat thoracic aorta
Assay type: cell-based
Settings: 10 min, cumulative application at intervals of 10 minutes, 37° C., 10^-4 M papaverine = 100% relaxation, read-out: median inhibitory concentration (IC50)
Procedure: (Effect of inhibiting contraction caused by 30 mM K on endothelium-ablated specimen of rat thoracic aorta)
A thoracic aorta was enucleated from a rat (weight: 129-492 g) and cut into lengths of 3 mm. Cotton in the form of a paper string was put in a lumen of each of ring specimens, and the inner surface of the ring specimen was rubbed several times with the cotton, thereby ablating an endothelium from the thoracic aorta specimen. This specimen was incubated at 37° C. and suspended in 10 ml of a Krebs-Henseleit solution, into which a mixed gas had been introduced, with a load of 2 g applied thereto. The tension thereof was isometrically recorded in a recorder through an FD transducer and a dynamic strain gage. After at least 60 minutes went on after the suspension, and the sample was stabilized, 10^-7 M noradrenaline was applied several times to the specimen. Under contraction caused by 10^-7 M noradrenaline, 10^-7 M acetylcholine was applied to the specimen. A specimen which manifested no relaxing effect at this time was used in an experiment as an endothelium-ablated specimen. Each of agents (compounds of Compound Numbers shown in Table 20 and Cromakalim) to be tested was cumulatively applied at intervals of 10 minutes from the time 30 mM K^+ had been applied to such a specimen, and the contraction of the specimen had been fixed, thereby calculating a median inhibitory concentration (IC50). Incidentally, 10^-4 M papaverine was applied to confirm 100% relaxing affect. The agents to be tested were dissolved (5×10^-2 M in dimethyl sulfoxide and diluted with purified water before their use.

Point of comparison: `CC1(C)CN(NC(=O)c2cccnc2)c2cc(OC(F)(F)F)ccc2C1=O` [compound 30], IC50 49.2 nM. Against it:
- CC(=O)NN1CC(C)(C)C(=O)c2ccc(S(=O)(=O)c3ccccc3)cc21 [Compound No. 53, 1-Acetoamino-2,3-dihydro-3,3-dimethyl-7-phenylsulfonyl-4(1H)-quinolinone] — 1.7-fold higher, 83.2 nM
- CC1(C)Oc2ccc(C#N)cc2[C@@H](N2CCCC2=O)[C@@H]1O (racemic) [Cromakalim, (±)-trans-6-cyano-2,2-dimethyl-4-(2-oxopyrrolidin-1-yl)-3,4-dihydro-2H-1-benzopyran-3-ol, reference compound] — 2.6-fold higher, 130 nM
- CC1(C)CN(NC(=O)c2cccnc2)c2cc(C(F)(F)F)ccc2C1=O [compound 23] — within 1.5-fold, 66.2 nM
- CCC(=O)NN1CC(C)(C)C(=O)c2ccc(OC(F)(F)F)cc21 [compound 29] — 2.1-fold higher, 104 nM
- CC(=O)NN1CC(C)(C)C(=O)c2ccc(C(F)(F)F)cc21 [compound 21] — 2-fold higher, 100 nM
- CC(=O)NN1CC(C)(C)C(=O)c2ccc(OC(F)(F)F)cc21 [compound 28] — within 1.5-fold, 48.2 nM
- CC(=O)NN1CC(C)(C)C(=O)c2ccc(S(=O)(=O)C(F)(F)F)cc21 [Compound No. 44, 1-Acetoamino-2,3-dihydro-3,3-dimethyl-7-(trifluoromethyl) sulfonyl-4(1H)-quinolinone] — 2.6-fold lower, 18.8 nM
- CC1(C)CN(N2CCCC2=O)c2cc(S(=O)(=O)c3ccccc3)ccc2C1=O [Compound No. 63, 2,3-Dihydro-3,3-dimethyl-7-phenylsulfonyl-1-(2-oxopyrrolidin-1-yl)-4(1H)-quinolinone] — 1.8-fold higher, 86.9 nM
